According to the NIST ThermoML archive (doi:10.1016/j.fluid.2015.03.015):
Numbers after ± are expanded uncertainties.

Experiment: refractive index (other wavelength) (dimensionless); xn = mol fraction of the nth substance listed

CCCC(C)O (centres undefined) [pentan-2-ol] + CCCCCCCC[n+]1ccn(C)c1.F[B-](F)(F)F
Minimum deviation
Settings	refractive index
284.59 K, Liquid mixture 1, Wavelength=623.8 nm, x2 = 0.01	1.4096 ± 0.0003
284.59 K, Liquid mixture 2, Wavelength=623.8 nm, x2 = 0.347	1.4237 ± 0.0004
285.29 K, Liquid mixture 1, Wavelength=623.8 nm, x2 = 0.01	1.4093 ± 0.0004
285.29 K, Liquid mixture 2, Wavelength=623.8 nm, x2 = 0.338	1.4232 ± 0.0003
286.13 K, Liquid mixture 1, Wavelength=623.8 nm, x2 = 0.012	1.4091 ± 0.0006
286.13 K, Liquid mixture 2, Wavelength=623.8 nm, x2 = 0.332	1.4227 ± 0.0003
286.89 K, Liquid mixture 1, Wavelength=623.8 nm, x2 = 0.013	1.4088 ± 0.0005
286.89 K, Liquid mixture 2, Wavelength=623.8 nm, x2 = 0.319	1.422 ± 0.0003
287.65 K, Liquid mixture 1, Wavelength=623.8 nm, x2 = 0.015	1.4086 ± 0.0004
287.65 K, Liquid mixture 2, Wavelength=623.8 nm, x2 = 0.315	1.4216 ± 0.0003
288.25 K, Liquid mixture 1, Wavelength=623.8 nm, x2 = 0.016	1.4084 ± 0.0004
288.25 K, Liquid mixture 2, Wavelength=623.8 nm, x2 = 0.307	1.4211 ± 0.0003
288.92 K, Liquid mixture 1, Wavelength=623.8 nm, x2 = 0.016	1.4081 ± 0.0003
288.92 K, Liquid mixture 2, Wavelength=623.8 nm, x2 = 0.293	1.4204 ± 0.0003
289.54 K, Liquid mixture 1, Wavelength=623.8 nm, x2 = 0.019	1.408 ± 0.0004
289.54 K, Liquid mixture 2, Wavelength=623.8 nm, x2 = 0.288	1.42 ± 0.0003
290.07 K, Liquid mixture 1, Wavelength=623.8 nm, x2 = 0.021	1.4079 ± 0.0004
290.07 K, Liquid mixture 2, Wavelength=623.8 nm, x2 = 0.279	1.4195 ± 0.0003
290.61 K, Liquid mixture 1, Wavelength=623.8 nm, x2 = 0.021	1.4077 ± 0.0004
290.61 K, Liquid mixture 2, Wavelength=623.8 nm, x2 = 0.271	1.419 ± 0.0003
291.08 K, Liquid mixture 1, Wavelength=623.8 nm, x2 = 0.023	1.4076 ± 0.0004
291.08 K, Liquid mixture 2, Wavelength=623.8 nm, x2 = 0.264	1.4186 ± 0.0003
291.55 K, Liquid mixture 1, Wavelength=623.8 nm, x2 = 0.025	1.4075 ± 0.0004
291.55 K, Liquid mixture 2, Wavelength=623.8 nm, x2 = 0.255	1.4181 ± 0.0003
292.02 K, Liquid mixture 1, Wavelength=623.8 nm, x2 = 0.027	1.4074 ± 0.0004
292.02 K, Liquid mixture 2, Wavelength=623.8 nm, x2 = 0.247	1.4176 ± 0.0003
292.46 K, Liquid mixture 1, Wavelength=623.8 nm, x2 = 0.03	1.4074 ± 0.0004
292.46 K, Liquid mixture 2, Wavelength=623.8 nm, x2 = 0.235	1.417 ± 0.0003
292.84 K, Liquid mixture 1, Wavelength=623.8 nm, x2 = 0.031	1.4073 ± 0.0004
292.84 K, Liquid mixture 2, Wavelength=623.8 nm, x2 = 0.229	1.4166 ± 0.0003
293.15 K, Liquid mixture 1, Wavelength=623.8 nm, x2 = 0.035	1.4074 ± 0.0004
293.15 K, Liquid mixture 2, Wavelength=623.8 nm, x2 = 0.221	1.4162 ± 0.0003
293.41 K, Liquid mixture 1, Wavelength=623.8 nm, x2 = 0.037	1.4074 ± 0.0004
293.41 K, Liquid mixture 2, Wavelength=623.8 nm, x2 = 0.211	1.4157 ± 0.0003
293.63 K, Liquid mixture 1, Wavelength=623.8 nm, x2 = 0.04	1.4075 ± 0.0003
293.63 K, Liquid mixture 2, Wavelength=623.8 nm, x2 = 0.206	1.4154 ± 0.0003
293.78 K, Liquid mixture 1, Wavelength=623.8 nm, x2 = 0.041	1.4075 ± 0.0003
293.78 K, Liquid mixture 2, Wavelength=623.8 nm, x2 = 0.202	1.4152 ± 0.0003
293.89 K, Liquid mixture 1, Wavelength=623.8 nm, x2 = 0.044	1.4076 ± 0.0004
293.89 K, Liquid mixture 2, Wavelength=623.8 nm, x2 = 0.201	1.4151 ± 0.0003
293.99 K, Liquid mixture 1, Wavelength=623.8 nm, x2 = 0.045	1.4076 ± 0.0003
293.99 K, Liquid mixture 2, Wavelength=623.8 nm, x2 = 0.197	1.4149 ± 0.0003
294.09 K, Liquid mixture 1, Wavelength=623.8 nm, x2 = 0.047	1.4077 ± 0.0004
294.09 K, Liquid mixture 2, Wavelength=623.8 nm, x2 = 0.193	1.4147 ± 0.0003
294.19 K, Liquid mixture 1, Wavelength=623.8 nm, x2 = 0.048	1.4077 ± 0.0003
294.19 K, Liquid mixture 2, Wavelength=623.8 nm, x2 = 0.189	1.4145 ± 0.0003
294.27 K, Liquid mixture 1, Wavelength=623.8 nm, x2 = 0.05	1.4078 ± 0.0019
294.27 K, Liquid mixture 2, Wavelength=623.8 nm, x2 = 0.188	1.4144 ± 0.0003
294.35 K, Liquid mixture 1, Wavelength=623.8 nm, x2 = 0.053	1.4079 ± 0.0004
294.35 K, Liquid mixture 2, Wavelength=623.8 nm, x2 = 0.184	1.4142 ± 0.0003
294.42 K, Liquid mixture 1, Wavelength=623.8 nm, x2 = 0.054	1.4079 ± 0.0004
294.42 K, Liquid mixture 2, Wavelength=623.8 nm, x2 = 0.18	1.414 ± 0.0003
294.49 K, Liquid mixture 1, Wavelength=623.8 nm, x2 = 0.056	1.408 ± 0.0004
294.49 K, Liquid mixture 2, Wavelength=623.8 nm, x2 = 0.175	1.4138 ± 0.0003
294.54 K, Liquid mixture 1, Wavelength=623.8 nm, x2 = 0.058	1.4081 ± 0.0004
294.54 K, Liquid mixture 2, Wavelength=623.8 nm, x2 = 0.174	1.4137 ± 0.0003
294.6 K, Liquid mixture 1, Wavelength=623.8 nm, x2 = 0.06	1.4082 ± 0.0003
294.6 K, Liquid mixture 2, Wavelength=623.8 nm, x2 = 0.172	1.4136 ± 0.0004
294.64 K, Liquid mixture 1, Wavelength=623.8 nm, x2 = 0.063	1.4083 ± 0.0004

85 kPa, Liquid, Wavelength=632.8 nm, Minimum Deviation
Settings	refractive index
288.19 K, x2 = 0.599	1.4284 ± 0.0003
288.8 K, x2 = 0.899	1.4331 ± 0.0003
288.81 K, x2 = 0.798	1.4316 ± 0.0003
288.98 K, x2 = 0.7	1.4298 ± 0.0003
289.74 K, x2 = 0.599	1.428 ± 0.0003
290.84 K, x2 = 0.798	1.4311 ± 0.0003
290.84 K, x2 = 0.899	1.4326 ± 0.0003
290.99 K, x2 = 0.7	1.4293 ± 0.0003
291.3 K, x2 = 0.599	1.4275 ± 0.0003
292.85 K, x2 = 0.599	1.427 ± 0.0003
292.89 K, x2 = 0.899	1.432 ± 0.0003
292.91 K, x2 = 0.798	1.4305 ± 0.0003
293.05 K, x2 = 0.7	1.4287 ± 0.0003
293.9 K, x2 = 0.4	1.422 ± 0.0003
294.42 K, x2 = 0.599	1.4265 ± 0.0003
